Reference: patent US8329643B2, “PIMAP39 modulates LPS-induced inflammatory response” (Trustees of Boston University, priority 2008, dated 2012)

Experiments:
[1] = tested on: LPS-induced TNF-α production; assay: Effects of inhibitors on LPS-induced TNF-α production in THP-1 cells (ELISA); assay type: cell-based, human; settings: for LPS-induced TNF-α expression compared to LPS alone / TNF-α levels within 8-10 hrs post treatment: THP-1 cells; for LPS-induced TNF-α expression compared to LPS alone: 0.1 μg/ml E. coli LPS, 10 μM sodium orthovanadate, 20 μM AG490, U0126 or SB203580, ELISA 2-16 hours; for TNF-α levels within 8-10 hrs post treatment: LPS + inhibitor, ELISA
Method: THP-1 cells were differentiated with 100 nM phorbol-12-myristate-13-acetate (PMA) and seeded (1×10^5) in 6-well plates overnight. After washing by PBS, cells were stimulated with 0.1 mg/ml E. coli LPS for 3 hrs. The cells were washed with PBS again and treated with various inhibitors. 10 μM Sodium orthovandate, 20μM AG490, 20μM U0126, 20μM SB203580 or untreated as control. 200μl of supernatant was collected for ELISA assay (A) from each treatment at 2, 4, 6, 8, 12, 14 and 16 hours and its corresponding mRNA was prepared for RT-PCR (B) by first extracting total RNA from the treated cells using QIAQuick™ RNA miniprep (Qiagen). 1μg of each RNA was used to generate cDNA with Platinum® Quantitative RT-PCR ThermoScript™ One-Step System kit (Invitrogen). 10 ng pf cDNA from each test was PCRed using PTP4A3 forward primer 5′-[…]-3′ [SEQ ID NO: 2] and reverse primer 5′-[…]-3′ [SEQ ID NO: 3]. Another 1 ng of cDNA was PCRed using GAPDH primer pairs (Invitrogen) as control. Densitometric analysis (C) of RT-PCR (B) with intensity values normalized to GAPDH and using 0 hour value as reference intensity.
AG490, U0126 and SB203580 were purchased from EMD Biosciences (San Diego, Calif.). Sodium orthovanadate was purchased from Sigma-Aldrich (Saint Louis, Mo.). Human THP-1 cells were treated with 10 μM Sodium orthovanadate (PTP4A3 inhibitor [Greenwel, P, et al., (1995) Tyrosine dephosphorylation of nuclear proteins mimics transforming growth factor beta 1 stimulation of alpha 2(1) collagen gene expression. Mol Cell Biol 15:6813-6819], 20 μM AG490 (JAK inhibitor [Saudemont, A, et al., (2007) Dormant tumor cells develop cross-resistance to apoptosis induced by CTLs or imatinib mesylate via methylation of suppressor of cytokine signaling 1. Cancer Res 67:4491-4498], 20 μM U0126 (ERK inhibitor [Yang, L, et al., (2007) Inhibition of epidermal growth factor receptor signaling elevates 15-hydroxyprostaglandin dehydrogenase in non-small-cell lung cancer. Cancer Res 67:5587-5593], 20 μM SB203580 (p38 MAPK inhibitor [Hsieh, Y H, et al., (2007) p38 mitogen-activated protein kinase pathway is involved in protein kinase Calpha-regulated invasion in human hepatocellular carcinoma cells. Cancer Res 67:4320-4327].
For primary mouse macrophages or THP-1, cells were seeded (2×10^4 cells in 96-well plate or 2×10^6 cells in six-well plate) and were stimulated with […] of E. coli LPS (Sigma) and/or transiently transfected with […] of DNA using Lipofectamine™ Reagent and/or introduced with 500 ng/ml peptide using Chariot™ kit (ActiveMotif; Carlsbad, Calif.) prior to LPS treatment, then incubated at 37° C., 5% CO2 overnight. Culture supernatants were harvested and centrifuged at 1,500×g to remove cell debris. Concentrations of mouse or human TNF-α in the supernatant of each well of treated and untreated control cells were measured by ELISA (Abraxis, Warminster, Pa.). ELISA immunoreactivity was quantified by using a microplate reader (Bio-Rad, Hercules, Calif.) and graphed.
To investigate a link between PTP4A3 and the LPS signaling cascade, HP-1 cells were co-treated with 0.1 μg/ml E. coli LPS and/or various inhibitors, sodium orthovanadate (PTP4A3 inhibitor), AG490 (JAK inhibitor), U0126 (ERK inhibitor), SB203580 (p38 MAPK inhibitor) or untreated as control. The supernatants from cell culture at each time point (2, 4, 6, 8, 10, 12, 14 and 16 hours post stimulation) were collected and the potential role of these inhibitors on TNF-α production was measured by ELISA (Abraxis; […].). In parallel mRNA from each experimental group was prepared and quantified by RT-PCR.

PTP4A3 gene expression = assay: PTP4A3 expression by RT-PCR in LPS plus inhibitor treated THP-1 cells; assay type: cell-based, human; settings: time course
Method: THP-1 cells were differentiated with 100 nM phorbol-12-myristate-13-acetate (PMA) and seeded (1×10^5) in 6-well plates overnight. After washing by PBS, cells were stimulated with 0.1 mg/ml E. coli LPS for 3 hrs. The cells were washed with PBS again and treated with various inhibitors. 10 μM Sodium orthovandate, 20μM AG490, 20μM U0126, 20μM SB203580 or untreated as control. 200μl of supernatant was collected for ELISA assay (A) from each treatment at 2, 4, 6, 8, 12, 14 and 16 hours and its corresponding mRNA was prepared for RT-PCR (B) by first extracting total RNA from the treated cells using QIAQuick™ RNA miniprep (Qiagen). 1μg of each RNA was used to generate cDNA with Platinum® Quantitative RT-PCR ThermoScript™ One-Step System kit (Invitrogen). 10 ng pf cDNA from each test was PCRed using PTP4A3 forward primer 5′-ATGGCTCGGATGAACCGC-3′ [SEQ ID NO: 2] and reverse primer 5′-CTACATAACGCAGCACCG-3′ [SEQ ID NO: 3]. Another 1 ng of cDNA was PCRed using GAPDH primer pairs (Invitrogen) as control. Densitometric analysis (C) of RT-PCR (B) with intensity values normalized to GAPDH and using 0 hour value as reference intensity.
The PCR or RT-PCR was performed following manufacturer's instructions.

[2] = tested on: LPS-induced TNF-α expression; settings: monocyte cells, 'current studies'; cited from earlier work
[3] = tested on: p38α/LITAF signaling pathway; assay: Western blot of p38α/LITAF signaling pathway in LPS-treated THP-1 cells after PTP4A3 overexpression or RNAi; assay type: cell-based, human
Method: THP-1 cells (1×10^5) were stimulated with 0.1 μg/ml E. coli LPS for 3 hours. The cells were washed and transiently transfected with DNAs above using Lipofectamine™ reagent (Invetrogen). Treated cells were then incubated overnight. The supernatants from each culture were measured by ELISA. Elisa immunoreactivity was quantified using a microplate reader (Bio-Rad) and graphed (A). […] THP-1 cells (B) or mouse macrophage cells (C) were stimulated with 0.1 μg/ml E. coli LPS alone for 3 hours and then transfected with 1 μg/ml pcHAPTP DNA (B & C, lane 3) or 1 μg/ml pcDNA (B & C, lane 2) and untreated (B & C, lane 1) as controls by Lipofectamine reagent. Treated cells were incubated overnight and lysed. […]
THP-1 cells (5×10^6) matured by treatment with 200 nM phorbol 12-myristate 13-acetate (Sigma) were treated or untreated with 0.1 μg/ml LPS (Sigma) for 3 h and washed with PBS. […] The protein lysate from the treated or untreated cells were analyzed by Western blotting. […]
LITAF remains inactivated in the absence of p38 MAP kinase (p38α) and the inhibition of p38α down-regulates cytokines such as TNF-α [Tang, X, et al., (2006) LPS-induced TNF-alpha factor (LITAF)-deficient mice express reduced LPS-induced cytokine: Evidence for LITAF-dependent LPS signaling pathways. […] The lysate protein from each treated cell culture was detected by Western blot analysis. […]

Compound: N#C/C(=C/c1ccc(O)c(O)c1)C(=O)NCc1ccccc1 [AG490]
- LPS-induced TNF-α expression compared to LPS alone [1]: did not result in a significant decrease
- TNF-α levels within 8-10 hrs post treatment [1]: did not increase at all
- PTP4A3 expression (RT-PCR) (PTP4A3 gene expression): at a maximum between 8-10 hrs

Compound: CO[C@H]1[C@@H](OC)C[C@H](C)[C@@H](OC)C2=CC(=O)C=C(NC(=O)/C(C)=C/C=C\[C@H](OC)[C@@H](OC(N)=O)/C(C)=C/[C@@H]1C)C2=O [Herbimycin-A]
- LPS-induced TNF-α expression at protein and mRNA levels [2]: markedly attenuated

Compound: C[S+]([O-])c1ccc(-c2nc(-c3ccncc3)c(-c3ccc(F)cc3)[nH]2)cc1 (centres unmarked) [SB203580]
- LPS-induced TNF-α expression compared to LPS alone [1]: significant decrease
- PTP4A3 expression (RT-PCR) (PTP4A3 gene expression): at a maximum between 8-10 hrs

Compound: N#CC(=C(/N)Sc1ccccc1N)/C(C#N)=C(\N)Sc1ccccc1N [U0126]
- LPS-induced TNF-α expression compared to LPS alone [1]: did not result in a significant decrease
- TNF-α levels within 8-10 hrs post treatment [1]: did not increase at all
- PTP4A3 expression (RT-PCR) (PTP4A3 gene expression): at a maximum between 8-10 hrs

Compound: O=c1c(-c2ccc(O)cc2)coc2cc(O)cc(O)c12 [genistein]
- LPS-induced TNF-α expression at protein and mRNA levels [2]: markedly attenuated

Compound: [Na+].[Na+].[Na+].[O]=[V]([O-])([O-])[O-] [sodium orthovanadate, Sodium orthovanadate]
- LPS-induced expression of TNF-α on co-treatment ([1]; LPS and orthovanadate, FIG. 1, 8-16 hrs): augmented
- LPS-induced TNF-α expression compared to LPS alone [1]: did not result in a significant decrease
- concentration of secreted TNF-α higher than LPS only treated cells ([1]; on average, at the 8 hr mark and beyond, LPS + 10 μM sodium orthovanadate): 20%
- PTP4A3 expression (RT-PCR) (PTP4A3 gene expression): No such maximum occurred
- LPS-induced TNF-α expression at protein and mRNA levels [2]: further enhanced

Compound: GUACGAGGACGCCAUCCAGUU & AACUGGAUGGCGUCCUCGUAC (listed as RNA, chemistry not given here) [RNAi, small interfering RNA (siRNA) specific for PTP4A3]
- p38α phosphorylation in response to LPS ([3]; FIG. 4D, 100 nM siRNA or 0.5 mg pcHAPTP): significantly increased
- ability of overexpressed PTP4A3 to dephosphorylate p38 ([3]; pcHAPTP plus RNAi, FIG. 4D lane 5): suppressed
